Here are results for 16 molecules from US20260347373A1, “HETEROCYCLIC COMPOUNDS, COMPOSITIONS THEREOF, AND METHODS OF TREATMENT THEREWITH” (BeOne Medicines I GmbH, priority 2023, published 2026).

Structures are written as SMILES.

The target of assay [1] is WT KRAS (Homo sapiens, UniProt P01116). The assay can be described thus: KRAS WT Probe Displacement Assay (TR-FRET, GDP-loaded). The note with it: KRAS WT, read-out: KRAS^WT Probe Displacement Assay IC50. The format is binding. The text has this:
(§1) The synthetic routes of probe 1 and 2, which have been disclosed in PCT/CN2022/070676, are hereby incorporated herein.
(In general: In TR-FRET formats the signal depends on donor and acceptor labels being close together.)

In assay [2] the target is KRAS G12D (Homo sapiens, UniProt P01116, G12D). As to the kind of experiment: KRAS G12D Probe Displacement Assay (TR-FRET, GDP-loaded). The format is binding. The settings on record: KRAS G12D, read-out: KRAS^G12D Probe Displacement Assay IC50.
Text: as §1

Sequence of WT KRAS (P01116 1-188 isoform P01116-2): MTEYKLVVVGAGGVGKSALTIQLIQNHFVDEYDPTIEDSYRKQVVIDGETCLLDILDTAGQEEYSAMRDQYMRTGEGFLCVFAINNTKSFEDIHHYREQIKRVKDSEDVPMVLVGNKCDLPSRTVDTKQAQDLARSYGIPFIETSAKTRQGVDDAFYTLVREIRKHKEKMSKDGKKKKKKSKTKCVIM
Sequence of KRAS G12D (P01116 1-188 isoform P01116-2 G12D): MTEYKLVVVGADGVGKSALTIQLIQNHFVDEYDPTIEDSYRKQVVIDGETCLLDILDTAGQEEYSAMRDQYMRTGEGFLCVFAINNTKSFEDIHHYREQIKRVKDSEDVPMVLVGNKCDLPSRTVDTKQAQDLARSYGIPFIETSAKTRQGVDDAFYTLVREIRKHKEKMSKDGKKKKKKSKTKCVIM

As to `COC[C@@H]1[C@@H]2C[C@@H]2CN1CC1(COc2nc3c4c(nc(-c5cc(N)cc(C)c5C(F)(F)F)c(F)c4n2)OCC[C@@H]2[C@@H]4CC[C@H](CN32)N4)CC1` [Example 180, 3-((6aR,7S,10R)-1-fluoro-13-((1-(((1R,2S,5S)-2-(methoxymethyl)-3-azabicyclo[3.1.0]hexan-3-yl)methyl)cyclopropyl)methoxy)-5,6,6a,7,8,9,10,11-octahydro-4-oxa-3,11a,12,14,15-pentaaza-7,10-methanocyclohepta[4,5]cycloocta[1,2,3-de]naphthalen-2-yl)-5-methyl-4-(trifluoromethyl)aniline], the 50% inhibitory concentration (IC50) in assay [1] fell in the range of 3 to 1000 nM; in assay [2], 0.3 to 3 nM.
The matching figures for `Cc1cc(N)cc(-c2nc3c4c(nc(OCC5(CN6CCSCC6)CC5)nc4c2F)N2C[C@H]4CC[C@H](N4)[C@H]2CCO3)c1C(F)(F)F` [Example 159, 3-((6aR,7S,10R)-1-fluoro-13-((1-(thiomorpholinomethyl)cyclopropyl)methoxy)-5,6,6a,7,8,9,10,11-octahydro-4-oxa-3,11a,12,14,15-pentaaza-7,10-methanocyclohepta[4,5]cycloocta[1,2,3-de]naphthalen-2-yl)-5-methyl-4-(trifluoromethyl)aniline]: 0.3 to 3 nM and less than 0.3 nM.
For `Cc1cc(N)cc(-c2nc3c4c(nc(OCC5(CN6CCC7(C6)CC7(F)F)CC5)nc4c2F)N2C[C@H]4CC[C@H](N4)[C@H]2CCO3)c1C(F)(F)F` (mixture of isomers) [Example 90, 3-((6aR,7S,10R)-13-((1-((1,1-difluoro-5-azaspiro [2.4]heptan-5-yl)methyl)cyclopropyl)methoxy)-1-fluoro-5,6,6a,7,8,9,10,11-octahydro-4-oxa-3, 11a,12,14,15-pentaaza[7,10]methanocyclohepta[4,5]cycloocta[1,2,3-de]naphthalen-2-yl)-5-methyl-4-(trifluoromethyl)aniline], in that order: 0.3 to 3 nM and less than 0.3 nM.
Consider `Nc1cc(Cl)c(C(F)(F)F)c(-c2nc3c4c(nc(OCC5(CN6CCC(=C(F)F)CC6)CC5)nc4c2F)N2C[C@H]4CC[C@H](N4)[C@H]2CCO3)c1` [Example 148, 3-chloro-5-((6aR,7S,10R)-13-((1-((4-(difluoromethylene)piperidin-1-yl)methyl)cyclopropyl)methoxy)-1-fluoro-5,6,6a,7,8,9,10,11-octahydro-4-oxa-3,11a,12,14,15-pentaaza-7,10-methano-cyclohepta[4,5]cycloocta [1,2,3-de]naphthalen-2-yl)-4-(trifluoromethyl)aniline], for which the IC50 in assay [1] is 0.3 to 3 nM; in assay [2], less than 0.3 nM.
For `Cc1cc(N)cc(-c2nc3c4c(nc(OCC5(CN6CC7C(C6)C7(F)F)CC5)nc4c2F)N2C[C@H]4CC[C@H](N4)[C@H]2CCO3)c1C(F)(F)F` (stereo partly drawn) [Example 168, 3-((6aR,7S,10R)-13-((1-((6,6-difluoro-3-azabicyclo[3.1.0]hexan-3-yl)methyl)cyclopropyl)methoxy)-1-fluoro-5,6,6a,7,8,9,10,11-octahydro-4-oxa-3,11a,12,14,15-pentaaza-7,10-methanocyclohepta[4,5]cycloocta[1,2,3-de]naphthalen-2-yl)-5-methyl-4-(trifluoromethyl)aniline], in that order: 3 to 1000 nM and less than 0.3 nM.
With `Cc1cc(N)cc(-c2nc3c4c(nc(OCC56CCCN5CC(F)(F)C6)nc4c2F)N2C[C@H]4CC[C@H](N4)[C@H]2CCO3)c1C(F)(F)F` (stereo partly drawn) [Example 1, 3-((6aR,7S,10R)-13-((2,2-difluorotetrahydro-1H-pyrrolizin-7a(5H)-yl)methoxy)-1-fluoro-5,6,6a,7,8,9,10,11-octahydro-4-oxa-3,11a,12,14,15-pentaaza-7,10-methanocyclohepta[4,5]cycloocta[1,2,3-de]naphthalen-2-yl)-5-methyl-4-(trifluoromethyl)aniline], the figures for the IC50 in assay [1] and in assay [2] were 3 to 1000 nM and 0.3 to 3 nM, respectively.
The matching figures for `Cc1cc(N)cc(-c2nc3c4c(nc(OCC5(CN6CCC(C#N)CC6)CC5)nc4c2F)N2C[C@H]4CC[C@H](N4)[C@H]2CCO3)c1C(F)(F)F` [Example 165, 1-((1-((((6aR,7S,10R)-2-(5-amino-3-methyl-2-(trifluoromethyl)phenyl)-1-fluoro-5,6,6a,7,8,9,10,11-octahydro-4-oxa-3,11a,12,14,15-pentaaza-7,10-methanocyclohepta[4,5]cycloocta[1,2,3-de]naphthalen-13-yl)oxy)methyl)cyclopropyl)methyl)piperidine-4-carbonitrile]: 0.3 to 3 nM and less than 0.3 nM.
For `Cc1cc(N)cc(-c2nc3c4c(nc(OCC5(CN6CC=CC6CO)CC5)nc4c2F)N2C[C@H]4CC[C@H](N4)[C@H]2CCO3)c1C(F)(F)F` (stereo partly drawn) [Example 161, (1-((1-((((6aR,7S,10R)-2-(5-amino-3-methyl-2-(trifluoromethyl)phenyl)-1-fluoro-5,6,6a,7,8,9,10,11-octahydro-4-oxa-3,11a,12,14,15-pentaaza-7,10-methanocyclohepta[4,5]cycloocta[1,2,3-de]naphthalen-13-yl)oxy)methyl)cyclopropyl)methyl)-2,5-dihydro-1H-pyrrol-2-yl)methanol], in that order: 3 to 1000 nM and less than 0.3 nM.
The matching figures for `Cc1cc(N)cc(-c2nc3c4c(nc(OCC5(CN6CCC7(CC6)CC(F)(F)C7)CC5)nc4c2F)N2C[C@H]4CC[C@H](N4)[C@H]2CCO3)c1C(F)(F)F` [Example 173, 3-((6aR,7S,10R)-13-((1-((2,2-difluoro-7-azaspiro[3.5]nonan-7-yl)methyl)cyclopropyl)methoxy)-1-fluoro-5,6,6a,7,8,9,10,11-octahydro-4-oxa-3,11a,12,14,15-pentaaza[7,10]methanocyclohepta[4,5]cycloocta[1,2,3-de]naphthalen-2-yl)-5-methyl-4-(trifluoromethyl)aniline]: 3 to 1000 nM and less than 0.3 nM.
Regarding `CO[C@@H]1CCN(CC2(COc3nc4c5c(nc(-c6cc(N)cc(C)c6C(F)(F)F)c(F)c5n3)OCC[C@@H]3[C@@H]5CC[C@H](CN43)N5)CC2)C1` [Example 87, 3-((6aR,7S,10R)-1-fluoro-13-((1-(((R)-3-methoxypyrrolidin-1-yl)methyl)cyclopropyl)methoxy)-5,6,6a,7,8,9,10,11-octahydro-4-oxa-3,11a,12,14,15-pentaaza-7,10-methanocyclohepta [4,5]cycloocta [1,2,3-de]naphthalen-2-yl)-5-methyl-4-(trifluoromethyl)aniline], the values for the 50% inhibitory concentration (IC50) in assay [1] and in assay [2] were 3 to 1000 nM and less than 0.3 nM, respectively.
Take `Cc1cc(N)cc(-c2nc3c4c(nc(O[C@H]5COCC[C@@H]5N(C)C)nc4c2F)N2C[C@H]4CC[C@H](N4)[C@H]2CCO3)c1C(F)(F)F` [Example 8, (3R,4S)-3-(((6aR,7S,10R)-2-(5-amino-3-methyl-2-(trifluoromethyl)phenyl)-1-fluoro-5,6,6a,7,8,9,10,11-octahydro-4-oxa-3,11a,12,14,15-pentaaza-7,10-methanocyclohepta[4,5]cycloocta [1,2,3-de]naphthalen-13-yl)oxy)-N,N-dimethyltetrahydro-2H-pyran-4-amine]: the IC50 is 3 to 1000 nM in assay [1] and 0.3 to 3 nM in assay [2].
As for `Cc1cc(N)cc(-c2nc3c4c(nc(OCC5(CN6CCc7cnn(C)c7C6)CC5)nc4c2F)N2C[C@H]4CC[C@H](N4)[C@H]2CCO3)c1C(F)(F)F` [Example 193], the IC50 in assay [1] was 3 to 1000 nM; in assay [2] it was less than 0.3 nM.
For `Cc1cc(N)cc(-c2nc3c4c(nc(OCC5(C)CN(C)CCC5C(F)F)nc4c2F)N2C[C@H]4CC[C@H](N4)[C@H]2CCO3)c1C(F)(F)F` (single isomer, unassigned) [Example 244], the IC50 in assay [1] lay within 3 to 1000 nM; in assay [2] it was 0.3 to 3 nM.
The matching figures for `Cc1cc(N)cc(-c2nc3c4c(nc(OC[C@@]56CCCN5CC(=C(F)F)C6)nc4c2F)N2C[C@H]4CC[C@H](N4)[C@H]2CCO3)c1C(F)(F)F` [Example 200, 3-((6aR,7S,10R)-13-(((S)-2-(difluoromethylene)tetrahydro-1H-pyrrolizin-7a(5H)-yl)methoxy)-1-fluoro-5,6,6a,7,8,9,10,11-octahydro-4-oxa-3,11a,12,14,15-pentaaza-7,10-methanocyclohepta[4,5]cycloocta[1,2,3-de]naphthalen-2-yl)-5-methyl-4-(trifluoromethyl)aniline]: 3 to 1000 nM and less than 0.3 nM.
For `CN(C)C[C@@]1(COc2nc3c4c(nc(-c5cc(N)cc(Cl)c5C(F)(F)F)c(F)c4n2)OCC[C@@H]2[C@@H]4CC[C@H](CN32)N4)CC1(F)F` [Example 45, 3-chloro-5-((6aR,7S,10R)-13-(((R)-1-((dimethylamino)methyl)-2,2-difluorocyclopropyl)methoxy)-1-fluoro-5,6,6a,7,8,9,10,11-octahydro-4-oxa-3,11a,12,14,15-pentaaza-7,10-methanocyclohepta[4,5]cycloocta[1,2,3-de]naphthalen-2-yl)-4-(trifluoromethyl)aniline], in that order: 0.3 to 3 nM and less than 0.3 nM.
For `Cc1cc(N)cc(-c2nc3c4c(nc(OCC5(CN6CC=CC6C6(O)CC6)CC5)nc4c2F)N2C[C@H]4CC[C@H](N4)[C@H]2CCO3)c1C(F)(F)F` (stereo partly drawn) [Example 162, 1-(1-((1-((((6aR,7S,10R)-2-(5-amino-3-methyl-2-(trifluoromethyl)phenyl)-1-fluoro-5,6,6a,7,8,9,10,11-octahydro-4-oxa-3,11a,12,14,15-pentaaza-7,10-methanocyclohepta[4,5]cycloocta[1,2,3-de]naphthalen-13-yl)oxy)methyl)cyclopropyl)methyl)-2,5-dihydro-1H-pyrrol-2-yl)cyclopropan-1-ol], in that order: 3 to 1000 nM and less than 0.3 nM.

In general, IC50 refers to the concentration at which inhibition is half-maximal.
